These results are taken from patent US20110130413A1, “SUBSTITUTED QUINAZOLINES” (Shire LLC, priority 2008, published 2011).

Structures are written as SMILES. In brackets after ≈: the same amount, converted by molar mass. Several values for one entry are separate records, joined by “and”; a condition that tells them apart may be missing. Equal values may be shown once. Marks after values point to notes of the source that are not given here.

One data set concerns PDEIII. Briefly: PDEIII inhibition. The data set is classed as biochemical. The note with it: more potent than anagrelide itself.
Another data set is described as follows: Solubility. The data set is classed as physicochemical.
The nature of data set [1]: Comparative bioavailability study in the dog. The data set is classed as in vivo. The text has this: The potential benefit of improved water solubility on the absorption of these open-ring analogues was shown in a comparative bioavailability study in the dog. Using the unsubstituted ethyl-5,6-dichloro-3,4-dihydro-2-(1H)-iminoquinazoline-3-acetate HBr as a model compound, a comparison was made of the systemic availability of anagrelide when given as this compound or as anagrelide itself in equimolar doses ([…]).

Data set [2] can be described thus: Conversion of ring open prodrug to anagrelide in human plasma (LC/MS-MS). The note with it: human plasma spiked 100 ng/mL, room temperature, first point of measurement (immediately after mixing). It counts as in vitro ADME. The protocol: Such prodrugs are likely to be extremely rapidly and completely cyclised in plasma to the closed ring 3-alkylanagrelide analogues. […] Human plasma was spiked with anagrelide prodrug (final concentration 100 ng/mL). Immediately after mixing, and at 15, 30, 45 and 60 minutes afterward samples were analysed for anagrelide prodrug and anagrelide.

Where [3] appears, read: male dogs, single oral (capsule), anagrelide 6.1 mg/kg or ester prodrug 7.5 mg/kg, individual dogs.
[4] abbreviates: male dogs, single oral (capsule), anagrelide 6.1 mg/kg or ester prodrug 7.5 mg/kg, individual dogs, listed as Ester prodrug of anagrelide, HBr.
Where [5] appears, read: male dogs, single oral (capsule), anagrelide 6.1 mg/kg or ester prodrug 7.5 mg/kg, median.

Turning to `O=C1NC2=Nc3ccc(Cl)c(Cl)c3CN2C1O` (stereo not drawn) [3-hydroxyanagrelide], the “potency as an inhibitor of PDEIII relative to anagrelide” value with PDEIII is on record as roughly 40 fold.
One may read the solubility as the dissolved amount per volume that the medium holds. The low end stands for little dissolved substance, the high end for much dissolved substance. Turning to `O=C1CN2Cc3c(ccc(Cl)c3Cl)N=C2N1` [anagrelide, 6,7-dichloro-1,5-dihydroimidazo[2,1-b]-quinazolin-2(3H)-one], the solubility in “Solubility” (aqueous solution, aqueous buffer, at pH 11.4) was roughly 1000 µg/mL (≈ 3900 µM); in the data set “Solubility” (aqueous solution, aqueous buffer, pH range of 4-8) it was less than 10 µg/mL; in “Solubility” (simulated gastric fluid, in 0.1M HCl), roughly 170 µg/mL (≈ 664 µM). Further, in data set [1] (setting [3]), the Tmax of anagrelide is 2 h. Also, in data set [1] (setting [3]), the k of anagrelide is 0.4459 ^c hours^−1 and 0.3119 ^c hours^−1 and 0.1953 ^d hours^−1.
On to `Br.CCOC(=O)CN1Cc2c(ccc(Cl)c2Cl)NC1=N` [ethyl-5,6-dichloro-3,4-dihydro-2-(1H)-iminoquinazoline-3-acetate HBr], for which, in data set [2], the “prodrug remaining in human plasma (conversion to anagrelide)” value is “no prodrug could be found”. In addition, in data set [1] (dog, oral, equimolar doses), the “Cmax for anagrelide, range over dogs” value was 170-418 ngmL^−1. Moreover, in data set [1] (male dogs, single oral (capsule), anagrelide 6.1 mg/kg or ester prodrug 7.5 mg/kg), the “t½ of 3-hydroxy anagrelide, calculated as ln2/(mean rate constant)” value is recorded as 2.1 ^e hours. In addition, in data set [1] (setting [4]), the “AUCinfin of 3-hydroxy anagrelide” value is 1290 ^c ng · h/mL, the AUCinfin of anagrelide is on record as 1440 ^d ng · h/mL, the “k of 3-hydroxy anagrelide” value is 0.1235 ^c hours^−1 and the k of anagrelide is given as 0.1789 ^d hours^−1. Also, in data set [1] (setting [4]), the “t½ of 3-hydroxy anagrelide” value is reported as 5.6 ^c hours and the t½ of anagrelide is 3.9 ^d hours. In addition, in data set [1] (setting [5]), the “Tmax of 3-hydroxy anagrelide, median” value was 3.5 ^b hours and the “Tmax of anagrelide, median” value is 3.5 ^b hours. In data set [1] (male dogs, single oral (capsule), ester prodrug 7.5 mg/kg), the “t½ of anagrelide, calculated as ln2/(mean rate constant)” value is recorded as 1.8 ^f hours.
